Where a SMILES comes first, the peptide text is derived from it.
Tests used:
[1] = molecular target: Wnt-responsive promoter (TCF/LEF); assay: Wnt-dependent luciferase reporter assay; assay type: cell-based, murine
In short: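 Murine 3T3 fibroblasts carrying a TCF/LEF-driven luciferase reporter, stimulated with Wnt3a in the presence of increasing peptide concentrations or vehicle. Luminescence inhibition gave EC50 values in uM.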

[2] = % Viability non-Wnt responsive cells
β-catenin = molecular target: T1, β-catenin (Homo sapiens, UniProt P35222); assay: KD50 measurement using competitive fluorescence polarization (FP) with labelled TCF4; assay type: binding; conditions: fluorescence polarization, β-catenin; for Kd: read-out: β-Cat FP KD
T1 sequence (P35222 1-781): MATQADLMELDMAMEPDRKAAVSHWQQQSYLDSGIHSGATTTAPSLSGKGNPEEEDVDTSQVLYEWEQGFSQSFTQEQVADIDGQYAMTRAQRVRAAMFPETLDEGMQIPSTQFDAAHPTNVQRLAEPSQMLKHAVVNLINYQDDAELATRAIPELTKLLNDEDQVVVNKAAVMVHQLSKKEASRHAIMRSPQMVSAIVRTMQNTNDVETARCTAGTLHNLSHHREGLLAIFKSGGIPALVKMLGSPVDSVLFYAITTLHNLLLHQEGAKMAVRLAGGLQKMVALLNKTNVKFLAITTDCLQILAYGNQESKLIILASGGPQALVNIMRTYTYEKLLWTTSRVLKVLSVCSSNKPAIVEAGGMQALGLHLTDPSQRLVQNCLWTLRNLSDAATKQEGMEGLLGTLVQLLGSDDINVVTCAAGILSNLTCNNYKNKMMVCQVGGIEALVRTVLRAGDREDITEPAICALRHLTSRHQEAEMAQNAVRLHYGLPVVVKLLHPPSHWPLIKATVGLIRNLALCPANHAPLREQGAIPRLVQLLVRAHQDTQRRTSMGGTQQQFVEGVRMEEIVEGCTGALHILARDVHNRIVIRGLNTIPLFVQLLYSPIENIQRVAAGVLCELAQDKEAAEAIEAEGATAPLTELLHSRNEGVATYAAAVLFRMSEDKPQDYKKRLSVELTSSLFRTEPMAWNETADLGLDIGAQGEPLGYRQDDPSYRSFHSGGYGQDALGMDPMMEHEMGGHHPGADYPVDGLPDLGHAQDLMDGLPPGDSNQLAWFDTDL
In short: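 Tracer: labelled TCF4, 5 nM; protein 100 nM; RT incubation. Competitor dilution series 10 nM–30 uM. FP read ex 470 / em 520 nm. n = 3.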

CC[C@H](C)[C@@H]1NC(=O)[C@H](CC(C)C)NC(=O)[C@H](Cc2ccccc2)NC(=O)[C@H](Cc2c[nH]c3ccccc23)NC(=O)[C@@H](NC(C)=O)CCCCNC(=O)CC[C@@H](C(=O)O)NC(=O)[C@H](Cc2c[nH]c3ccccc23)NC(=O)[C@H](Cc2ccccc2)NC(=O)[C@H](CO)NC1=O [compound 199] (HELM PEPTIDE1{[ac].K.W.F.L.I.S.F.W.E}$PEPTIDE1,PEPTIDE1,2:R3-10:R3$$$V2.0)
EC50 [1]: < 7.5 µM
viability [2]: 89.8%
β-Cat FP Hill slope (β-catenin): 0.7
Kd (β-catenin): 0.4 to 1 µM

CC[C@H](C)[C@@H]1NC(=O)[C@H](CC(C)C)NC(=O)[C@H](Cc2ccccc2)NC(=O)[C@H](Cc2c[nH]c3ccccc23)NC(=O)[C@@H](NC(C)=O)CCCCNC(=O)CC[C@@H](C(=O)O)NC(=O)[C@H](Cc2c[nH]c3ccccc23)NC(=O)[C@H](Cc2ccccc2)NC(=O)[C@H](C)NC1=O [compound 200] (HELM PEPTIDE1{[ac].K.W.F.L.I.A.F.W.E}$PEPTIDE1,PEPTIDE1,2:R3-10:R3$$$V2.0)
EC50 [1]: < 7.5 µM
viability [2]: 81.4%
β-Cat FP Hill slope (β-catenin): 0.7
Kd (β-catenin): 1 to 10 µM

CC[C@H](C)[C@@H]1NC(=O)[C@H](CC(C)C)NC(=O)[C@H](Cc2ccccc2)NC(=O)[C@H](Cc2c[nH]c3ccccc23)NC(=O)[C@@H](N)CCCCNC(=O)CC[C@@H](C(=O)O)NC(=O)[C@H](Cc2c[nH]c3ccccc23)NC(=O)[C@H](Cc2ccccc2)NC(=O)[C@H](C)NC1=O [compound 201] (HELM PEPTIDE1{K.W.F.L.I.A.F.W.E}$PEPTIDE1,PEPTIDE1,1:R3-9:R3$$$V2.0)
EC50 [1]: 22.5 to 30 µM
viability [2]: 60.1%
β-Cat FP Hill slope (β-catenin): 0.7
Kd (β-catenin): 1 to 10 µM

CC[C@H](C)[C@@H]1NC(=O)[C@H](CC(C)C)NC(=O)[C@H](Cc2ccccc2)NC(=O)[C@H](Cc2c[nH]c3ccccc23)NC(=O)[C@@H](N)CCCCNC(=O)C[C@@H](C(=O)O)NC(=O)[C@H](Cc2c[nH]c3ccccc23)NC(=O)[C@H](C)NC(=O)[C@H](CO)NC1=O [compound 202] (HELM PEPTIDE1{K.W.F.L.I.S.A.W.D}$PEPTIDE1,PEPTIDE1,1:R3-9:R3$$$V2.0)
EC50 [1]: 22.5 to 30 µM
viability [2]: 92.1%
Kd (β-catenin): > 30 µM

CC[C@H](C)[C@@H]1NC(=O)[C@H](CC(C)C)NC(=O)[C@H](CC2CCCCC2)NC(=O)[C@H](Cc2c[nH]c3ccccc23)NC(=O)[C@@H](N)CCCCNC(=O)C[C@@H](C(=O)O)NC(=O)[C@H](Cc2c[nH]c3ccccc23)NC(=O)[C@H](C)NC(=O)[C@H](CO)NC1=O [compound 203] (HELM PEPTIDE1{K.W.[Cha].L.I.S.A.W.D}$PEPTIDE1,PEPTIDE1,1:R3-9:R3$$$V2.0)
EC50 [1]: 7.5 to 15 µM
viability [2]: 98%
Kd (β-catenin): > 30 µM

CC[C@H](C)[C@@H]1NC(=O)[C@H](CC(C)C)NC(=O)[C@H](C2CCCCC2)NC(=O)[C@H](Cc2c[nH]c3ccccc23)NC(=O)[C@@H](N)CCCCNC(=O)C[C@@H](C(=O)O)NC(=O)[C@H](Cc2c[nH]c3ccccc23)NC(=O)[C@H](C)NC(=O)[C@H](CO)NC1=O [compound 204] (HELM PEPTIDE1{K.W.[O=C([C@@H](N[*:1])C1CCCCC1)[*:2]].L.I.S.A.W.D}$PEPTIDE1,PEPTIDE1,1:R3-9:R3$$$V2.0)
EC50 [1]: < 7.5 µM
viability [2]: 108%
β-Cat FP Hill slope (β-catenin): 0.74
Kd (β-catenin): 0.4 to 1 µM

CC[C@H](C)[C@@H]1NC(=O)[C@H](CC(C)C)NC(=O)[C@H](C(C)(C)C)NC(=O)[C@H](Cc2c[nH]c3ccccc23)NC(=O)[C@@H](N)CCCCNC(=O)C[C@@H](C(=O)O)NC(=O)[C@H](Cc2c[nH]c3ccccc23)NC(=O)[C@H](C)NC(=O)[C@H](CO)NC1=O [compound 205] (HELM PEPTIDE1{K.W.[CC(C)(C)[C@H](N[*:1])C(=O)[*:2]].L.I.S.A.W.D}$PEPTIDE1,PEPTIDE1,1:R3-9:R3$$$V2.0)
EC50 [1]: > 30 µM
viability [2]: 114%
Kd (β-catenin): > 30 µM

CC[C@H](C)[C@@H]1NC(=O)[C@H](CC(C)C)NC(=O)[C@H](CC(C)C)NC(=O)[C@H](Cc2c[nH]c3ccccc23)NC(=O)[C@@H](N)CCCCNC(=O)C[C@@H](C(=O)O)NC(=O)[C@H](Cc2c[nH]c3ccccc23)NC(=O)[C@H](C)NC(=O)[C@H](CO)NC1=O [compound 206] (HELM PEPTIDE1{K.W.L.L.I.S.A.W.D}$PEPTIDE1,PEPTIDE1,1:R3-9:R3$$$V2.0)
EC50 [1]: 15 to 22.5 µM
viability [2]: 98.7%
Kd (β-catenin): > 30 µM

CC[C@H](C)[C@@H]1NC(=O)[C@H](CC(C)C)NC(=O)[C@H](Cc2ccccc2)NC(=O)[C@H](Cc2c[nH]c3ccccc23)NC(=O)[C@@H](N)CCCCNC(=O)CNC(=O)C[C@@H](C(=O)O)NC(=O)[C@H](Cc2c[nH]c3ccccc23)NC(=O)[C@H](C)NC(=O)[C@H](CS)NC1=O [compound 207] (HELM PEPTIDE1{K.W.F.L.I.C.A.W.[O=C(O)[C@H](CC(=O)[*:2])N[*:1]].G}$PEPTIDE1,PEPTIDE1,1:R3-10:R2$$$V2.0)
EC50 [1]: < 7.5 µM
viability [2]: 107%
β-Cat FP Hill slope (β-catenin): 0.7
Kd (β-catenin): 0.4 to 1 µM

CC[C@H](C)[C@H](NC(=O)[C@@H]1CCC(=O)NCCCC[C@H](N)C(=O)N[C@@H](Cc2c[nH]c3ccccc23)C(=O)N[C@@H](Cc2ccccc2)C(=O)N1)C(=O)N[C@@H](CO)C(=O)N[C@@H](Cc1ccccc1)C(=O)N[C@@H](Cc1c[nH]c2ccccc12)C(=O)NCC(=O)O [compound 208] (HELM PEPTIDE1{K.W.F.E.I.S.F.W.G}$PEPTIDE1,PEPTIDE1,1:R3-4:R3$$$V2.0)
EC50 [1]: 7.5 to 15 µM
viability [2]: 93.4%
β-Cat FP Hill slope (β-catenin): 0.69
Kd (β-catenin): 1 to 10 µM

CC[C@H](C)[C@H](NC(=O)[C@H](CC(C)C)NC(=O)[C@H](Cc1ccccc1)NC(=O)[C@H](Cc1c[nH]c2ccccc12)NC(=O)[C@H](C)N)C(=O)N[C@@H](CO)C(=O)N[C@@H](Cc1ccccc1)C(=O)N[C@@H](Cc1c[nH]c2ccccc12)C(=O)NCC(=O)O [compound 209] (H-AWFLISFWG-OH)
EC50 [1]: < 7.5 µM
viability [2]: 91%
β-Cat FP Hill slope (β-catenin): 0.93
Kd (β-catenin): 0.4 to 1 µM

CC[C@H](C)[C@H](NC(=O)[C@H](CC(C)C)NC(=O)[C@H](Cc1ccccc1)NC(=O)[C@H](C)NC(=O)[C@@H](N)CCSC)C(=O)N[C@@H](CO)C(=O)N[C@@H](Cc1ccccc1)C(=O)N[C@@H](Cc1c[nH]c2ccccc12)C(=O)NCC(=O)O [compound 210] (H-MAFLISFWG-OH)
EC50 [1]: < 7.5 µM
viability [2]: 96.4%
β-Cat FP Hill slope (β-catenin): 0.6
Kd (β-catenin): 1 to 10 µM

CC[C@H](C)[C@H](NC(=O)[C@H](CC(C)C)NC(=O)[C@H](Cc1ccccc1)NC(=O)[C@H](Cc1c[nH]c2ccccc12)NC(=O)[C@@H](N)CCSC)C(=O)N[C@@H](CS)C(=O)N[C@@H](C)C(=O)N[C@@H](Cc1c[nH]c2ccccc12)C(=O)NCC(=O)O [compound 211] (H-MWFLICAWG-OH)
EC50 [1]: < 7.5 µM
viability [2]: 93.9%
β-Cat FP Hill slope (β-catenin): 0.67
Kd (β-catenin): 1 to 10 µM

CC[C@H](C)[C@H](NC(=O)[C@H](CC(C)C)NC(=O)[C@H](Cc1ccccc1)NC(=O)[C@H](Cc1c[nH]c2ccccc12)NC(=O)[C@@H](N)CCSC)C(=O)N[C@@H](C)C(=O)N[C@@H](C)C(=O)N[C@@H](Cc1c[nH]c2ccccc12)C(=O)NCC(=O)O [compound 212] (H-MWFLIAAWG-OH)
EC50 [1]: < 7.5 µM
viability [2]: 99.3%
β-Cat FP Hill slope (β-catenin): 1.05
Kd (β-catenin): 0.4 to 1 µM
